Measurements published in PMC10012049, “Synthesis, α-mannosidase inhibition studies and molecular modeling of 1,4-imino-ᴅ-lyxitols and their C-5-altered N-arylalkyl derivatives” (Beilstein Journal of Organic Chemistry, 2023).
Read-outs that look alike come from different tables or passages of the source. Marks after values point to notes of the source that are not given here.

What was measured:
[1] = target: T1, GMIIb (Golgi α-mannosidase) (Drosophila melanogaster, UniProt Q9VF33); assay: α-mannosidase inhibition assay with pNP-Man substrate, GMIIb; assay type: biochemical; conditions: for Ki: Dixon plots, pNP-Man 0.5-4 mM, pH 6.0
Source text: (§1) The enzymes screened included two Golgi types (GMIIb and AMAN-2) and two lysosomal types (LManII and JBMan) (Table 1).
(§2) Recombinant soluble forms of Drosophila melanogaster Golgi (GMIIb) and lysosomal (LManII) α-mannosidases as well as Caenorhabditis elegans Golgi α-mannosidase AMAN-2 were produced in Pichia pastoris and enriched by ammonium sulfate precipitation or nickel chelation chromatography as previously described. The α-mannosidase from Canavalia ensiformis (JBMan) was purchased from Sigma. […]
(§3) GMIIb was assayed in the […]
(§4) presence of 0.5 mM CoCl2.
(§5) The lyophilized derivatives used in the assay were dissolved in DMSO to the final concentration 50 mM and further diluted to a desired concentration in water. These derivatives were preincubated with the enzyme in the buffer for 5 min at rt and the reaction was started by addition of the substrate. The reactions were terminated with two volumes (0.1 mL) of 0.5 M sodium carbonate and the production of p-nitrophenol was measured at 405 nm using a multimode reader Mithras LB943 (Berthold Technologies). The average or representative result of three independent experiments made in duplicate is presented.

[2] = target: T2, AMAN-2 (Golgi α-mannosidase II) (Caenorhabditis elegans, UniProt Q2PJ74); assay: α-mannosidase inhibition assay with pNP-Man substrate, AMAN-2; assay type: biochemical; conditions: Dixon plots, pNP-Man 0.5-4 mM, pH 6.0
[3] = target: T3, LManII (lysosomal α-mannosidase) (Drosophila melanogaster, UniProt Q9VKV1); assay: α-mannosidase inhibition assay with pNP-Man substrate, LManII; assay type: biochemical; conditions: for Ki: Dixon plots, pNP-Man 0.5-4 mM, pH 5.2
Source text: as §1, §2, §3, §4, §5

[4] = target: T4, JBMan (Jack bean α-mannosidase) (Canavalia ensiformis, UniProt C0HJB3); assay: α-mannosidase inhibition assay with pNP-Man substrate, JBMan; assay type: biochemical; conditions: for IC50: 2 mM pNP-Man, pH 5.0, 37 °C; for Ki: Dixon plots, pNP-Man 0.5-4 mM, pH 5.0
T4 construct: purchased Sigma
T4 sequence (C0HJB3 1-981): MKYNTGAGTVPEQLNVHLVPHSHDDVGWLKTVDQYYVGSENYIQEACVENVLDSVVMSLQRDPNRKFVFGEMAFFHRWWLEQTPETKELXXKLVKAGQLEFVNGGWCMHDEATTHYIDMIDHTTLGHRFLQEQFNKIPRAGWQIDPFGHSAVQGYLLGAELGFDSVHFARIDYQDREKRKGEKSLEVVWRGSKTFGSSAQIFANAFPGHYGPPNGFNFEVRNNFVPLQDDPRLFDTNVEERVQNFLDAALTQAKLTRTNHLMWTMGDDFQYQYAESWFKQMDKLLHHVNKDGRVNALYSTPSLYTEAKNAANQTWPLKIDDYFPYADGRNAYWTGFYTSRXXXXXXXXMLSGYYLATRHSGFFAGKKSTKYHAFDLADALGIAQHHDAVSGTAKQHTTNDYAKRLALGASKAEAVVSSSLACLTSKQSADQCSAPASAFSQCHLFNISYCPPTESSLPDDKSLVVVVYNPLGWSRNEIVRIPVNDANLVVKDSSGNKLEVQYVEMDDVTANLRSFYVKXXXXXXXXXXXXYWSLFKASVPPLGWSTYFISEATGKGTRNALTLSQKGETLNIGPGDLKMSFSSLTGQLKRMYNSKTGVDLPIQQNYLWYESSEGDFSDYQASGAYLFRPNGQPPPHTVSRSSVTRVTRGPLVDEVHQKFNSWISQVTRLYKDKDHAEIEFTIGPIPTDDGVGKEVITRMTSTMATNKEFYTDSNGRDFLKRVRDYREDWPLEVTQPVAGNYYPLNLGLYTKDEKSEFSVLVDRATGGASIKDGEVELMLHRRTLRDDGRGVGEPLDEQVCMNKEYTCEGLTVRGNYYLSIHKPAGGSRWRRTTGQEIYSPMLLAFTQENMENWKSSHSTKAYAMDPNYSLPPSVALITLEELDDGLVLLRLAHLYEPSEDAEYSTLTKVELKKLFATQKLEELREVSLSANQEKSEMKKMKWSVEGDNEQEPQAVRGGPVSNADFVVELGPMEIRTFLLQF
Source text: as §1, §2, §3, §4, §5

[5] = target: T2, AMAN-2 (Golgi α-mannosidase II); assay: α-mannosidase inhibition assay with pNP-Man substrate, AMAN-2; assay type: biochemical; conditions: for Selectivity index, SI [Ki (JBMan)/Ki (AMAN-2)]: ratio of Ki values; for SI [IC50 (JBMan)/IC50 (AMAN-2)]: ratio of IC50 values; for times more potent toward AMAN-2 than DIM: relative to DIM
Source text: as §1
Recombinant soluble forms of Drosophila melanogaster Golgi (GMIIb) and lysosomal (LManII) α-mannosidases as well as Caenorhabditis elegans Golgi α-mannosidase AMAN-2 were produced in Pichia pastoris and enriched by ammonium sulfate precipitation or nickel chelation chromatography as previously described. The α-mannosidase from Canavalia ensiformis (JBMan) was purchased from Sigma. The mannosidase activity of these enzyme preparations were measured using p-nitrophenyl α -D-mannopyranoside ( pNP-Man; Sigma; 100 mM stock in dimethylsulfoxide) as a substrate at 2 mM final concentration in 50 mM acetate buffer of the relevant previously defined optimal pH, GMIIb and AMAN -2 at pH 6.0, LManII at pH 5.2 , and JBMan at pH 5.0) and 0.5 μL of the enzyme (0.05 µg of protein for JBMan), in a total volume of 50 μL for 1–2 h at 37 °C. GMIIb was assayed in the presence of 0.5 mM CoCl2.
as §5

[6] = target: T3, LManII (lysosomal α-mannosidase); conditions: ref Kóňa et al. [22]; cited from earlier work
[7] = target: T4, JBMan (Jack bean α-mannosidase); conditions: ref Kóňa et al. [22]; cited from earlier work
[8] = target: T1, GMIIb (Golgi α-mannosidase); conditions: ref Kóňa et al. [22]; cited from earlier work
[9] = target: T2, AMAN-2 (Golgi α-mannosidase II); conditions: cited from earlier work; for IC50: ref Kóňa et al. [22]
[10] = 2 mM pNP-Man, pH 6.0, 0.5 mM CoCl2, 37 °C, read-out: IC50 GMIIb
[11] = 2 mM pNP-Man, pH 5.2, 37 °C, read-out: IC50 LManII
[12] = 2 mM pNP-Man, pH 6.0, 37 °C, read-out: IC50 AMAN-2

T3 sequence (Q9VKV1 entry or part of it): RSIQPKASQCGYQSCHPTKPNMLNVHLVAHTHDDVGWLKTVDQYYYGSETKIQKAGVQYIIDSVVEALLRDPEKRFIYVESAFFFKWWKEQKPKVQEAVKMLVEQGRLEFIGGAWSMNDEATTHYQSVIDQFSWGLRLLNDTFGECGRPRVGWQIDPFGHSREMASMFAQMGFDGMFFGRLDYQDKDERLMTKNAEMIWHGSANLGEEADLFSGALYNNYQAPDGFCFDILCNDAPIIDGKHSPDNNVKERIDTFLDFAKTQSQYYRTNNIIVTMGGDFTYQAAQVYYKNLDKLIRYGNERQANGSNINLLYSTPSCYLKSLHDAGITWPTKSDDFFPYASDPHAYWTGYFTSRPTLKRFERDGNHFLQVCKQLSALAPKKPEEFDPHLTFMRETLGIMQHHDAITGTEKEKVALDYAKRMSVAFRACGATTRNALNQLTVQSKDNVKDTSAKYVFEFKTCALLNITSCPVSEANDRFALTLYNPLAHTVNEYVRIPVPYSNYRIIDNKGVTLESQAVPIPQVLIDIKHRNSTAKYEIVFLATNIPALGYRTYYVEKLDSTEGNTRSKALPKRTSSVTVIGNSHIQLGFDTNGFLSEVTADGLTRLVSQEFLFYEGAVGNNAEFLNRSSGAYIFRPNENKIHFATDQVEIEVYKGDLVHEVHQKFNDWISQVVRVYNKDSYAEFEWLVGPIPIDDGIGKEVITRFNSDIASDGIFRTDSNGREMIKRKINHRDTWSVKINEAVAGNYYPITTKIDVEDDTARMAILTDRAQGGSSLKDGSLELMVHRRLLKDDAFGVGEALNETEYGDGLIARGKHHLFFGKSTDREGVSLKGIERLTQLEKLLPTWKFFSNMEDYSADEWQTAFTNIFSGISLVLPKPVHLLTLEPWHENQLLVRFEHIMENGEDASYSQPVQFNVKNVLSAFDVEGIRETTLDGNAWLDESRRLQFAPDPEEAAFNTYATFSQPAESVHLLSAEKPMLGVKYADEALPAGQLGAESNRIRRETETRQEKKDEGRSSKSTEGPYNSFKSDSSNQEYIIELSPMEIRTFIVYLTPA
T2 sequence (Q2PJ74 entry or part of it): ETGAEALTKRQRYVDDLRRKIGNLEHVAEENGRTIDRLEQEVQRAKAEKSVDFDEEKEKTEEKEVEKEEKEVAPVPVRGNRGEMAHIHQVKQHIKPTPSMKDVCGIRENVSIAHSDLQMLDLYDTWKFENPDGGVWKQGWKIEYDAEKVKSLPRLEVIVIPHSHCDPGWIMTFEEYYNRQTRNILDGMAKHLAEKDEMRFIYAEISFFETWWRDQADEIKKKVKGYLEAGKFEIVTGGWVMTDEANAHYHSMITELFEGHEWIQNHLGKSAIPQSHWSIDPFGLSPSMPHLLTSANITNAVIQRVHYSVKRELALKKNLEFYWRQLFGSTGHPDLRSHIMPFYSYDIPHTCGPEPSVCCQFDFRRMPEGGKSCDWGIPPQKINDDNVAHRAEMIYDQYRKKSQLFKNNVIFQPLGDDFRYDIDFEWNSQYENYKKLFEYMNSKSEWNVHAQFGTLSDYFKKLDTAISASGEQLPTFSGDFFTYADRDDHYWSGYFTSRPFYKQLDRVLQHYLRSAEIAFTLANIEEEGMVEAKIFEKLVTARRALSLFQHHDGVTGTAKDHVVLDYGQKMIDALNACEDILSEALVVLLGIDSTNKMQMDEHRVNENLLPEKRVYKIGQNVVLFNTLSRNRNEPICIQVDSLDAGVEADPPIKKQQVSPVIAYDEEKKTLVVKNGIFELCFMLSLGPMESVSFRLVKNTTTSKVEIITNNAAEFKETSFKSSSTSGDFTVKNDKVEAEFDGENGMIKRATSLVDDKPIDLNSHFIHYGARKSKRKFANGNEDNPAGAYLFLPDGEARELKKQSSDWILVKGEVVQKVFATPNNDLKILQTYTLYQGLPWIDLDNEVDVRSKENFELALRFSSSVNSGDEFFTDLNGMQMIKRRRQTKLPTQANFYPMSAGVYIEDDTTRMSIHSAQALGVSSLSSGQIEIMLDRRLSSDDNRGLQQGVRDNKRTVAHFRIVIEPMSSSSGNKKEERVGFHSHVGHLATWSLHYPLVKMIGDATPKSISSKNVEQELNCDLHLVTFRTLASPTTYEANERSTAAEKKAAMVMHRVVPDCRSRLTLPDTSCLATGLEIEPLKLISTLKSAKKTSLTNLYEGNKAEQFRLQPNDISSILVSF
T1 sequence (Q9VF33 entry or part of it): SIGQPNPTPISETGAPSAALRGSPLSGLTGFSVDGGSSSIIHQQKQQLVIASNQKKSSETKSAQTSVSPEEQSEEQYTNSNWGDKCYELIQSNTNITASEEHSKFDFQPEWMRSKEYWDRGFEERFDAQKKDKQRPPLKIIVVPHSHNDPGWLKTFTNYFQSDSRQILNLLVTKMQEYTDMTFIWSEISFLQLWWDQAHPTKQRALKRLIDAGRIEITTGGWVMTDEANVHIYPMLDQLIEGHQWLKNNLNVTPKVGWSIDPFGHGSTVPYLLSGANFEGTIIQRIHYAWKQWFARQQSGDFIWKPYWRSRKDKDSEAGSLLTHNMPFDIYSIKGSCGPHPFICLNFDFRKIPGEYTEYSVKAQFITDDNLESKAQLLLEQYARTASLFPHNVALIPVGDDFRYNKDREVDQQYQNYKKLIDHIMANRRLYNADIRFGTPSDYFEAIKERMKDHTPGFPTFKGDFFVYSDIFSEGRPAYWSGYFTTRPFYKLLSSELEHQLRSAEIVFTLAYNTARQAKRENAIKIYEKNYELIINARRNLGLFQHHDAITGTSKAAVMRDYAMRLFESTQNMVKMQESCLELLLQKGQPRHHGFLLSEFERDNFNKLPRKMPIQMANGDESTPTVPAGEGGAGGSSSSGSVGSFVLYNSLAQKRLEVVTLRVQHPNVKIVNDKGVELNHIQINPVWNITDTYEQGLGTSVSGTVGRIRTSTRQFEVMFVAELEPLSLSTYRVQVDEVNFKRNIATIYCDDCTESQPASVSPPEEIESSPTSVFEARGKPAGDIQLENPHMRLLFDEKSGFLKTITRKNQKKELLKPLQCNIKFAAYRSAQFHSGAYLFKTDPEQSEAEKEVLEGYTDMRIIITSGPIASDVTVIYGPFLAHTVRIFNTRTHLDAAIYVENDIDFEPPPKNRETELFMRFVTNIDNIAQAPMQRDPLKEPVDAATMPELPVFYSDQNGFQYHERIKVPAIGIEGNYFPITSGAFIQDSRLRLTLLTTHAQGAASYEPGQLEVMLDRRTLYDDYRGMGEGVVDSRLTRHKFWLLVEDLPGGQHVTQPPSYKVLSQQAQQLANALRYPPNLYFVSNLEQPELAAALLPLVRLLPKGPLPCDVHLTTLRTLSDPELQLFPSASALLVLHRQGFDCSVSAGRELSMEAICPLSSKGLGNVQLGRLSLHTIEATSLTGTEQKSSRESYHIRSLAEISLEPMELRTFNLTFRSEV

Compound | IC50 [1, 10] | Ki [1] | Ki [2] | IC50 [3, 11] | Ki [3] | IC50 [4] | Ki [4] | IC50 [5, 12] | Selectivity index, SI [Ki (JBMan)/Ki (AMAN-2)] [5] | further results
OC[C@@H](O)[C@H]1NC[C@@H](O)[C@H]1O [DIM, 1,4-dideoxy-1,4-imino-ᴅ-mannitol, reference compound] | 0.19 ± 0.04 µM | 0.13 µM | 0.68 µM | 2.55 ± 0.1 µM | 1.95 µM | 0.72 ± 0.03 µM | 0.38 µM | 0.81 ± 0.03 µM | 0.6 | 
C[C@@H]1[C@H](O)[C@H](O)CN1Cc1ccccc1 [compound 7] | 245 ± 35 µM |  |  | > 4000 µM |  | > 4000 µM |  | 975 ± 25 µM |  | 
C[C@@H]1[C@H](O)[C@H](O)CN1Cc1ccc(I)cc1 [compound 8] | 205 ± 35 µM |  |  | > 4000 µM |  | > 4000 µM |  | 385 ± 15 µM |  | 
C[C@@H]1[C@H](O)[C@H](O)CN1Cc1ccc2ccccc2c1 [compound 9] | 310 ± 22 µM |  |  | > 4000 µM |  | > 4000 µM |  | 605 ± 35 µM |  | 
C[C@H]1NC[C@@H](O)[C@H]1O [compound 10] |  |  |  |  |  | 2880 ± 275 µM |  |  |  | IC50 [1]: 525 ± 25 µM; IC50 [3]: > 4000 µM; IC50 [5]: 415 ± 15 µM
C[C@H](O)[C@@H]1[C@H](O)[C@H](O)CN1Cc1ccccc1 [compound 17] | 335 ± 37 µM |  |  | > 4000 µM |  | > 4000 µM |  | 990 ± 10 µM |  | 
C[C@H](O)[C@@H]1[C@H](O)[C@H](O)CN1Cc1ccc(I)cc1 [compound 18] | 170 ± 10 µM |  |  | > 4000 µM |  | > 4000 µM |  | 205 ± 5 µM |  | 
C[C@H](O)[C@@H]1[C@H](O)[C@H](O)CN1Cc1ccc2ccccc2c1 [compound 19] | 860 ± 140 µM |  |  | > 4000 µM |  | > 4000 µM |  | 1680 ± 75 µM |  | 
C[C@H](O)[C@H]1NC[C@@H](O)[C@H]1O [compound 20] | 30 ± 5 µM |  |  | 295 ± 20 µM |  | 105 ± 25 µM |  | 48 ± 6 µM |  | SI [IC50 (JBMan)/IC50 (AMAN-2)] [5]: 2.2^b
C[C@@H](O)[C@@H]1[C@H](O)[C@H](O)CN1Cc1ccccc1 [compound 26] | 33 ± 3.7 µM | 16.2 µM | 58 µM | 505 ± 57 µM | 270 µM | 298 ± 30 µM | 80 µM | 115 ± 18 µM | 1.4 | 
C[C@@H](O)[C@@H]1[C@H](O)[C@H](O)CN1Cc1ccc(I)cc1 [compound 27] | 13 ± 5.5 µM | 4.2 µM | 34 µM | 410 ± 80 µM | 263 µM | 164 ± 28 µM | 73 µM | 66 ± 10 µM | 2.1 | 
C[C@@H](O)[C@@H]1[C@H](O)[C@H](O)CN1Cc1ccc2ccccc2c1 [compound 28] | 13.5 ± 5.5 µM | 5.2 µM | 18 µM | 118 ± 10 µM | 98 µM | 78 ± 16 µM | 44 µM | 22 ± 4 µM | 2.4 | 
C[C@@H](O)[C@H]1NC[C@@H](O)[C@H]1O [compound 29, 6-deoxy-DIM] | 0.12 ± 0.02 µM | 0.065 µM | 0.19 µM | 0.82 ± 0.19 µM | 0.38 µM | 0.32 ± 0.11 µM | 0.12 µM | 0.24 ± 0.05 µM | 0.6 | times more potent toward AMAN-2 than DIM [5]: ~4 times; times more potent toward AMAN-2 than DIM ([5]; listed as 6-deoxy-DIM): 3.5 times
OC[C@H]1NC[C@@H](O)[C@H]1O [compound 30] |  |  |  |  |  |  |  |  |  | IC50 [6]: 30.5 ± 3 µM; IC50 [7]: 10.5 ± 1.3 µM; IC50 [8]: 3.9 ± 0.1 µM; Ki [9]: 2.3 µM; IC50 [9]: 2.3 ± 0.1 µM; SI [IC50 (JBMan)/IC50 (AMAN-2)] [5]: 5^b
N-2-naphthylmethyl 1,4-imino-ᴅ-lyxitol [compound 31] |  |  |  |  |  |  |  |  |  | IC50 [6]: 845 ± 170 µM; IC50 [7]: 1950 ± 250 µM; IC50 [8]: 7.6 ± 1.1 µM; IC50 [9]: 2.4 ± 0.1 µM; SI [IC50 (JBMan)/IC50 (AMAN-2)] [5]: 812^b
